Source: the supplement of paper PMC10307832

Assays:
Test in all cases: relative viability (nuclei count vs DMSO), 5 days (fraction); higher = more cells survive
Silmitasertib + Olaparib = compound: O=C(O)c1ccc2c(c1)nc(Nc1cccc(Cl)c1)c1ccncc12 [Silmitasertib] + O=C(c1cc(Cc2n[nH]c(=O)c3ccccc23)ccc1F)N1CCN(C(=O)C2CC2)CC1 [Olaparib] (partner 8 µM)
In short: (§1)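 Values are medians from duplicate plates. Each reflects relative viability, defined as the nuclei count of treated wells over that of vehicle wells. Lung cancer cell lines in 1536-well plates were pin-tool dosed one day after seeding with one drug alone or with a fixed anchor-drug dose plus five library-drug doses (not always all listed) in √10 steps, then fixed, stained and imaged at 4× after 5 days.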

[1] = compound: O=C(O)c1ccc2c(c1)nc(Nc1cccc(Cl)c1)c1ccncc12 [Silmitasertib] + C[C@]1(O)C[C@@H](c2nc(-c3ccc4ccc(-c5ccccc5)nc4c3)c3c(N)nccn32)C1 [Linsitinib] (partner 1 µM)
In short: as §1

[2] = compound: O=C(O)c1ccc2c(c1)nc(Nc1cccc(Cl)c1)c1ccncc12 [Silmitasertib] + Nc1nc2[nH]cc(CCc3ccc(C(=O)N[C@@H](CCC(=O)O)C(=O)O)cc3)c2c(=O)[nH]1 [Pemetrexed] (partner 0.2 µM)
In short: as §1

[3] = compound: O=C(O)c1ccc2c(c1)nc(Nc1cccc(Cl)c1)c1ccncc12 [Silmitasertib] + CC(=O)Nc1cccc(-n2c(=O)n(C3CC3)c(=O)c3c(Nc4ccc(I)cc4F)n(C)c(=O)c(C)c32)c1 [Trametinib] (partner 0.02 µM)
In short: as §1

[4] = compound: O=C(O)c1ccc2c(c1)nc(Nc1cccc(Cl)c1)c1ccncc12 [Silmitasertib] + C[C@@H](Oc1cc(-c2cnn(C3CCNCC3)c2)cnc1N)c1c(Cl)ccc(F)c1Cl [Crizotinib] (partner 1 µM)
In short: as §1

| Cell Line | relative viability (Silmitasertib + Olaparib; first compound 0.04 µM) | relative viability (Silmitasertib + Olaparib; first compound 1.265 µM) | relative viability (Silmitasertib + Olaparib; first compound 4 µM) | relative viability ([1]; first compound 0.04 µM) | relative viability ([1]; first compound 1.265 µM) | relative viability ([1]; first compound 4 µM) | relative viability ([2]; first compound 0.04 µM) | relative viability ([2]; first compound 1.265 µM) | relative viability ([2]; first compound 4 µM) | relative viability ([3]; first compound 0.04 µM) | relative viability ([3]; first compound 1.265 µM) | relative viability ([3]; first compound 4 µM) | relative viability ([4]; first compound 0.04 µM) | relative viability ([4]; first compound 1.265 µM) | relative viability ([4]; first compound 4 µM) | relative viability (Silmitasertib + Olaparib; first compound 0.4 µM) | relative viability ([1]; first compound 0.4 µM) | relative viability ([4]; first compound 0.4 µM) | relative viability ([2]; first compound 0.4 µM) | relative viability ([3]; first compound 0.4 µM) |
| --- | --- | --- | --- | --- | --- | --- | --- | --- | --- | --- | --- | --- | --- | --- | --- | --- | --- | --- | --- | --- |
| HCC-827 | 0.659 | 0.705 | 0.735 | 0.967 | 1.18 | 1.18 | 0.282 | 0.282 | 0.273 | 0.604 | 0.406 | 0.422 | 0.993 | 0.952 | 1.01 | – | – | – | – | – |
| HOP-62 | 0.427 | 0.378 | 0.338 | 0.973 | 0.998 | 0.703 | 0.281 | 0.269 | 0.301 | 0.408 | 0.388 | 0.549 | 0.914 | 0.943 | 0.49 | – | – | – | – | – |
| IA-LM | 0.899 | 0.791 | 0.614 | 0.657 | 0.717 | 0.236 | – | – | – | – | – | – | 0.792 | 0.916 | 0.659 | 0.561 | 0.559 | 0.725 | – | – |
| LC-2-ad | 0.712 | 0.754 | 0.663 | 0.731 | 0.836 | 0.918 | 0.288 | 0.26 | 0.227 | 0.987 | 0.892 | 0.772 | 0.421 | 0.37 | 0.417 | 0.522 | 0.881 | 0.423 | 0.264 | 0.813 |
| LCLC-97TM1 | 0.382 | 0.213 | 0.234 | 0.178 | 0.172 | 0.14 | 0.187 | 0.186 | 0.144 | 0.217 | 0.156 | 0.145 | 0.593 | 0.339 | 0.141 | – | – | – | – | – |
| LCLC-103H | 0.817 | 0.641 | 0.664 | 1.09 | 1.04 | 0.796 | 0.49 | 0.416 | 0.378 | 0.689 | 0.648 | 0.636 | 1.03 | 1 | 0.713 | 0.719 | 1.19 | 1.06 | 0.394 | 0.71 |
| LK-2 | 0.798 | 0.663 | 0.346 | 0.557 | 0.365 | 0.451 | 0.254 | 0.084 | 0.297 | 0.674 | 0.678 | 0.702 | 0.198 | 0.245 | 0.187 | 0.283 | 0.474 | 0.333 | – | – |
| LOU-NH91 | 0.941 | 0.8 | 0.814 | 1.11 | 0.796 | 0.754 | 0.357 | 0.368 | 0.457 | 0.786 | 0.722 | 0.731 | 0.755 | 0.676 | 0.683 | 0.839 | 0.859 | 0.585 | 0.383 | 0.771 |
| LU99A | 0.277 | 0.216 | 0.204 | 0.574 | 0.396 | 0.361 | 0.187 | 0.148 | 0.168 | 0.5 | 0.38 | 0.461 | 0.583 | 0.558 | 0.591 | 0.287 | 0.632 | 0.725 | 0.168 | 0.549 |
| LXF-289 | 0.995 | 0.935 | 1.07 | 0.91 | 1.08 | 1.06 | 0.968 | 0.8 | 0.824 | 0.666 | 0.752 | 0.836 | 0.794 | 0.842 | 0.825 | – | – | – | – | – |
| NCI-H23 | 0.351 | 0.272 | 0.251 | 0.662 | 0.448 | 0.582 | 0.779 | 0.57 | 0.303 | 0.439 | 0.365 | 0.36 | 0.51 | 0.384 | 0.362 | 0.217 | – | – | 0.389 | 0.323 |
| NCI-H522 | 0.633 | 0.774 | 0.592 | – | – | – | 0.986 | 1 | 1.15 | 0.715 | 0.814 | 0.817 | – | – | – | 0.58 | – | – | 0.846 | 0.68 |
| NCI-H727 | 0.709 | 0.584 | 0.681 | 0.327 | 0.303 | 0.166 | – | – | – | 0.415 | 0.328 | 0.348 | 0.868 | 0.753 | 0.485 | 0.59 | 0.287 | 0.65 | – | 0.338 |
| NCI-H1395 | 0.463 | 0.459 | 0.469 | 1.14 | 1 | 1.01 | 0.975 | 0.841 | 0.654 | 1.07 | 1.03 | 1.14 | – | – | – | 0.461 | 0.919 | – | 0.756 | 0.809 |
| NCI-H1650 | 0.833 | 0.646 | 0.493 | – | – | – | 0.339 | 0.387 | 0.319 | 0.769 | 0.428 | 0.256 | 1.04 | 1 | 0.68 | 0.798 | – | 1 | 0.454 | 0.56 |
| NCI-H1703 | 0.513 | 0.541 | 0.573 | 1.04 | 1.23 | 0.419 | – | – | – | – | – | – | 0.954 | 0.787 | 0.392 | 0.368 | 0.654 | 0.596 | – | – |
| NCI-H1793 | 0.924 | 0.769 | 0.625 | 1.24 | 0.735 | 0.79 | 1.08 | 0.719 | 0.425 | 0.503 | 0.371 | 0.488 | – | – | – | 0.715 | 0.914 | – | 0.851 | 0.425 |
| NCI-H2170 | 0.56 | 0.529 | 0.574 | – | – | – | 0.271 | 0.25 | 0.282 | 0.918 | 0.833 | 0.821 | 1.22 | 0.863 | 1.15 | 0.299 | – | 0.958 | 0.258 | 0.661 |
| SW 900 | 0.883 | 0.739 | 0.568 | – | – | – | 0.493 | 0.464 | 0.258 | 0.929 | 0.647 | 0.492 | – | – | – | 0.701 | – | – | 0.463 | 0.624 |
